From ChEMBL document CHEMBL5325500, “Mannich Base PIP-199 Is a Chemically Unstable Pan-Assay Interference Compound” (J Med Chem, 2023)
Each block holds one molecule with its values, some of them ahead of it. The source made the active and inactive calls. No cut-off for these calls is given here.

Columns and labels:
[1] = Stability of compound in H2O/MeCN with 0.1% formic acid assessed as formation of 2-phenyl-3-(pyridin-2-ylmethylene)-3H-indole 1-oxide by measuring retention time at 250 uM measured after 1.5 hrs by LC-MS analysis; format: physicochemical
[2] = Stability of compound in 50 mM phosphate buffer at pH 6 to 8 assessed as drug decomposition at 250 uM measured after 1.5 hrs by NMR analysis; format: physicochemical; conditions: pH 6, 1.5 h
[3] = species on record: Homo sapiens; assay: Displacement of N-terminal TAMRA-labeled SRDLFSVTFDLGFCSPDSDD-NH2 tracer from RMI1/RMI2 (unknown origin) in 50 mM Tris buffer pH 8.8 at 125 uM incubated for 1 hr by fluorescence polarization assay
[4] = Stability of compound in phosphate buffer at pH 7 to 8 assessed as formation of 2-phenyl-3-(pyridin-2-ylmethylene)-3H-indole 1-oxide at 50 uM measured every 0.1 secs for 3 mins by UV-Vis spectroscopy; format: physicochemical; conditions: pH 7, 2.778e-05 h, time 0.1 sec
[5] = Stability of compound in H2O/MeCN with 0.1% formic acid assessed as formation of 2-phenyl-3-(pyridin-2-ylmethylene)indoline-1,2-diol by measuring retention time at 250 uM measured after 1.5 hrs by LC-MS analysis; format: physicochemical
[6] = species on record: Homo sapiens; assay: Binding affinity to biotinylated RMI1/RMI2 (unknown origin) at 12.5 to 200 uM associated for 60 secs and dissociated for 60 secs by SPR analysis; conditions: dose 12.5-200 µM, time 120.0 sec
[7] = Stability of compound in H2O/MeCN with 0.1% formic acid assessed as isomer of nitrone formation by measuring retention time at 250 uM measured after 1.5 hrs by LC-MS analysis; format: physicochemical
[8] = Stability of compound in 10 to 50 mM HEPES buffer at pH 7.4 assessed as drug decomposition at 250 uM measured after 1.5 hrs by NMR analysis; format: physicochemical; conditions: pH 7.4, 1.5 h
[9] = Stability of compound in H2O/MeCN with 0.1% formic acid assessed as elimination of piperazine at 250 uM measured after 1.5 hrs by LC-MS analysis; format: physicochemical
[10] = Stability of compound in 10 mM Tris buffer at pH 8.8 assessed as drug decomposition at 250 uM measured after 1.5 hrs by NMR analysis; format: physicochemical; conditions: pH 8.8, 1.5 h
[11] = species on record: Homo sapiens; assay: Displacement of N-terminal TAMRA-labeled SRDLFSVTFDLGFCSPDSDD-NH2 tracer from RMI1/RMI2 (unknown origin) in 10 mM Tris buffer pH 8.8 at 125 uM incubated for 1 hr by fluorescence polarization assay
[12] = Stability of compound in 50 mM Tris buffer at pH 8.8 assessed as drug decomposition at 250 uM measured after 1.5 hrs by NMR analysis; format: physicochemical; conditions: pH 8.8, 1.5 h
[13] = Solubility of compound assessed as precipitation at >250 uM; format: physicochemical
[14] = Stability in potassium phosphate buffer at pH 6 to 8 assessed as drug degradation at 250 uM measured after 1.5 hrs by 1H-NMR analysis; format: physicochemical; conditions: pH 6, 1.5 h
[15] = Stability of compound in 10 to 50 mM NH4Cl buffer at pH 8.8 assessed as drug decomposition at 250 uM measured after 1.5 hrs by NMR analysis; format: physicochemical; conditions: pH 8.8, 1.5 h
[16] = Stability in phosphate buffer at pH 6 assessed as drug degradation at 250 uM measured after 1.5 hrs by 1H-NMR analysis; format: physicochemical; conditions: read-out: Drug degradation
[17] = Stability of compound in H2O/MeCN with 0.1% formic acid assessed as retention time of intact compound at 250 uM measured after 1.5 hrs by LC-MS analysis; format: physicochemical
[18] = Stability in phosphate buffer at pH 7 to 8 assessed as drug degradation at 250 uM measured after 1.5 hrs by 1H-NMR analysis; format: physicochemical; conditions: pH 7, 1.5 h
[19] = Stability of compound in H2O/MeCN with 0.1% formic acid assessed as (2-phenyl-1H-indol-3-yl)(pyridin-2-yl)methanol formation by measuring retention time at 250 uM measured after 1.5 hrs by LC-MS analysis; format: physicochemical

Retention_time [1]: 11.4 min | Stability [2]: Unstable | Activity [3]: inactive | Stability [4]: Unstable | Retention_time [5]: 8.2 min | Activity [6]: inactive | Retention_time [7]: 9.5 min | Stability [8]: Unstable | Stability [9]: Unstable | Stability [10]: Unstable | Activity [11]: inactive | Stability [12]: Stable | solubility [13]: Insoluble | Stability [14]: Unstable | Stability [15]: Unstable
SMILES: CCOC(=O)N1CCN(C(c2ccccn2)c2c(-c3ccccc3)n(O)c3ccccc23)CC1 (stereo not drawn)

Activity [3]: inactive | Activity [6]: inactive
SMILES: c1ccc(-c2[nH]c3ccccc3c2C(c2ccccn2)N2CCCCC2)cc1 (stereo not drawn)

Activity [3]: inactive | Activity [6]: inactive
SMILES: CCOC(=O)N1CCN(C(c2ccccn2)c2ccc3ccccc3c2O)CC1 (stereo not drawn)

degraded at 1.5 h, 250 µM [16]: 50% | Activity [3]: inactive | Activity [6]: inactive | Retention_time [17]: 8.7 min | Stability [18]: Stable | Retention_time [19]: 7.3 min
SMILES: CCOC(=O)N1CCN(C(c2ccccn2)c2c(-c3ccccc3)[nH]c3ccccc23)CC1 (stereo not drawn)

Activity [3]: inactive
SMILES: CCOC(=O)N1CCN(C(c2ccccc2)c2c(-c3ccccc3)[nH]c3ccccc23)CC1 (stereo not drawn)

Activity [3]: inactive | Activity [6]: inactive
SMILES: CCOC(=O)N1CCN(C(c2ccccn2)c2c(C)[nH]c3ccccc23)CC1 (stereo not drawn)
